Reference: ChEMBL document CHEMBL1141332, “Cytotoxic metabolites from an Indonesian sponge Lendenfeldia sp” (J Nat Prod, 2007)
Several values for one entry are separate records, joined by “and”; a condition that tells them apart may be missing. Identical values can stand only once.

Columns and labels:
Format in all cases: functional
[1] = test system: HL-60; assay: Cytotoxicity against human HL60 cells
[2] = test system: K562; assay: Cytotoxicity against human K562 cells
[3] = test system: MOLT-4; assay: Cytotoxicity against human MOLT4 cells
[4] = test system: RPMI-8226; assay: Cytotoxicity against human RPMI8226 cells
[5] = test system: A549; assay: Cytotoxicity against human A549 cells
[6] = test system: HOP-62; assay: Cytotoxicity against human HOP62 cells
[7] = test system: HOP-92; assay: Cytotoxicity against human HOP92 cells
[8] = test system: NCI-H322M; assay: Cytotoxicity against human NCI-H322M cells
[9] = test system: NCI-H460; assay: Cytotoxicity against human NCI-H460 cells
[10] = test system: NCI-H522; assay: Cytotoxicity against human NCI-H522 cells
[11] = test system: LOX IMVI; assay: Cytotoxicity against human LOX IMVI cells
[12] = test system: COLO 205; assay: Cytotoxicity against human COLO205 cells
[13] = test system: HCC 2998; assay: Cytotoxicity against human HCC2998 cells
[14] = test system: HCT-116; assay: Cytotoxicity against human HCT116 cells
[15] = test system: HT-29; assay: Cytotoxicity against human HT29 cells
[16] = test system: KM12; assay: Cytotoxicity against human KM12 cells
[17] = test system: SW-620; assay: Cytotoxicity against human SW620 cells
[18] = test system: SF-268; assay: Cytotoxicity against human SF268 cells
[19] = test system: SF-295; assay: Cytotoxicity against human SF295 cells
[20] = test system: SF-539; assay: Cytotoxicity against human SF539 cells
[21] = test system: SNB-19; assay: Cytotoxicity against human SNB19 cells
[22] = test system: SNB-75; assay: Cytotoxicity against human SNB75 cells
[23] = test system: U-251; assay: Cytotoxicity against human U251cells
[24] = test system: M14; assay: Cytotoxicity against human M14 cells
[25] = test system: SK-MEL-2; assay: Cytotoxicity against human SK-MEL-2 cells
[26] = test system: SK-MEL-28; assay: Cytotoxicity against human SK-MEL-28 cells
[27] = test system: SK-MEL-5; assay: Cytotoxicity against human SK-MEL-5 cells
[28] = test system: UACC-257; assay: Cytotoxicity against human UACC257 cells
[29] = test system: UACC-62; assay: Cytotoxicity against human UACC62 cells
[30] = test system: IGROV-1; assay: Cytotoxicity against human IGROV1 cells
[31] = test system: OVCAR-4; assay: Cytotoxicity against human OVCAR4 cells
[32] = test system: OVCAR-5; assay: Cytotoxicity against human OVCAR5 cells
[33] = test system: OVCAR-8; assay: Cytotoxicity against human OVCAR8 cells
[34] = test system: SK-OV-3; assay: Cytotoxicity against human SK-OV-3 cells
[35] = test system: 786-0; assay: Cytotoxicity against human 786-0 cells
[36] = test system: A498; assay: Cytotoxicity against human A498 cells
[37] = test system: RXF 393; assay: Cytotoxicity against human RXF393 cells
[38] = test system: TK-10; assay: Cytotoxicity against human TK10 cells
[39] = test system: PC-3; assay: Cytotoxicity against human PC3 cells
[40] = test system: DU-145; assay: Cytotoxicity against human DU145 cells
[41] = test system: MCF7; assay: Cytotoxicity against human MCF7 cells
[42] = test system: NCI/ADR-RES; assay: Cytotoxicity against human NCI/ADR-RES cells
[43] = test system: MDA-MB-231; assay: Cytotoxicity against human MDA-MB-231 cells
[44] = test system: MDA-MB-435; assay: Cytotoxicity against human MDA-MB-435 cells
[45] = test system: BT-549; assay: Cytotoxicity against human BT549 cells
[46] = read-out: Log LC50 (the source's name) (converted)

Q: What does the source list for `CC(=O)O[C@H]1C[C@H]2[C@@](C)(CC[C@H]3C(C)(C)CCC[C@@]32CO)[C@@H]2CC=C(C(C)=O)[C@H](C=O)[C@@]12C`?
A: GI50 ([1]; Homo sapiens, HL-60): 170 nM; TGI ([1]; read-out: Log TGI (converted)): 537 nM and 2630 nM; GI50 [2]: 2190 nM; CC50 [2, 46]: 30200 nM; TGI ([2]; read-out: Log TGI (converted)): 7760 nM; GI50 [3]: 195 nM; CC50 [3, 46]: 1950 nM; TGI ([3]; read-out: Log TGI (converted)): 513 nM; GI50 [4]: 427 nM; CC50 [4, 46]: 8130 nM; TGI ([4]; read-out: Log TGI (converted)): 1820 nM; GI50 [5]: 562 nM; CC50 [5, 46]: 4680 nM; TGI ([5]; read-out: Log TGI (converted)): 1860 nM; GI50 [6]: 295 nM; CC50 [6, 46]: 2450 nM; TGI ([6]; read-out: Log TGI (converted)): 724 nM; GI50 [7]: 1350 nM; CC50 [7, 46]: 5500 nM; TGI ([7]; read-out: Log TGI (converted)): 2750 nM; GI50 [8]: 1910 nM; CC50 [8, 46]: 7590 nM; TGI ([8]; read-out: Log TGI (converted)): 3800 nM; GI50 [9]: 759 nM; CC50 [9, 46]: 6030 nM; TGI ([9]; read-out: Log TGI (converted)): 2290 nM; GI50 [10]: 1050 nM; CC50 [10, 46]: 6460 nM; TGI ([10]; read-out: Log TGI (converted)): 2570 nM; GI50 [11]: 234 nM; CC50 [11, 46]: 1780 nM; TGI ([11]; read-out: Log TGI (converted)): 550 nM; GI50 [12]: 295 nM; CC50 [12, 46]: 4370 nM; TGI ([12]; read-out: Log TGI (converted)): 1320 nM; GI50 [13]: 1000 nM; CC50 [13, 46]: 4790 nM; TGI ([13]; read-out: Log TGI (converted)): 2190 nM; GI50 [14]: 186 nM; CC50 [14, 46]: 676 nM; TGI ([14]; read-out: Log TGI (converted)): 355 nM; GI50 [15]: 324 nM; CC50 [15, 46]: 4270 nM; TGI ([15]; read-out: Log TGI (converted)): 1150 nM; GI50 [16]: 501 nM; CC50 [16, 46]: 4570 nM; TGI ([16]; read-out: Log TGI (converted)): 1700 nM; GI50 [17]: 162 nM; CC50 [17, 46]: 676 nM; TGI ([17]; read-out: Log TGI (converted)): 331 nM; GI50 [18]: 447 nM; CC50 [18, 46]: 6170 nM; TGI ([18]; read-out: Log TGI (converted)): 1860 nM; GI50 [19]: 479 nM; CC50 [19, 46]: 4270 nM; TGI ([19]; read-out: Log TGI (converted)): 1740 nM; GI50 [20]: 195 nM; CC50 [20, 46]: 794 nM; TGI ([20]; read-out: Log TGI (converted)): 389 nM; GI50 [21]: 1120 nM; CC50 [21, 46]: 5750 nM; TGI ([21]; read-out: Log TGI (converted)): 2570 nM; GI50 [22]: 355 nM; CC50 [22, 46]: 3470 nM; TGI ([22]; read-out: Log TGI (converted)): 1120 nM; GI50 [23]: 347 nM; CC50 [23, 46]: 3470 nM; TGI ([23]; read-out: Log TGI (converted)): 1200 nM; GI50 [24]: 1000 nM; CC50 [24, 46]: 4900 nM; TGI ([24]; read-out: Log TGI (converted)): 2240 nM; GI50 [25]: 1620 nM; CC50 [25, 46]: 8130 nM; TGI ([25]; read-out: Log TGI (converted)): 3630 nM; GI50 [26]: 251 nM; CC50 [26, 46]: 2290 nM; TGI ([26]; read-out: Log TGI (converted)): 631 nM; GI50 [27]: 501 nM; CC50 [27, 46]: 4070 nM; TGI ([27]; read-out: Log TGI (converted)): 1700 nM; GI50 [28]: 1950 nM; CC50 [28, 46]: 9550 nM; TGI ([28]; read-out: Log TGI (converted)): 4370 nM; GI50 [29]: 1480 nM; CC50 [29, 46]: 5370 nM; TGI ([29]; read-out: Log TGI (converted)): 2820 nM; GI50 [30]: 1580 nM; CC50 [30, 46]: 7080 nM; TGI ([30]; read-out: Log TGI (converted)): 3310 nM; GI50 [31]: 575 nM; CC50 [31, 46]: 5010 nM; TGI ([31]; read-out: Log TGI (converted)): 1910 nM; GI50 [32]: 832 nM; CC50 [32, 46]: 4680 nM; TGI ([32]; read-out: Log TGI (converted)): 2090 nM; GI50 [33]: 263 nM; TGI ([33]; read-out: Log TGI (converted)): 692 nM; GI50 [34]: 1200 nM; CC50 [34, 46]: 6310 nM; TGI ([34]; read-out: Log TGI (converted)): 2750 nM; GI50 [35]: 224 nM; CC50 [35, 46]: 1170 nM; TGI ([35]; read-out: Log TGI (converted)): 490 nM; GI50 [36]: 1480 nM; LC50 [36]: 5890 nM; TGI ([36]; read-out: Log TGI (converted)): 2950 nM; GI50 [37]: 295 nM; LC50 [37]: 3630 nM; TGI ([37]; read-out: Log TGI (converted)): 1120 nM; GI50 [38]: 302 nM; LC50 [38]: 3390 nM; TGI ([38]; read-out: Log TGI (converted)): 891 nM; GI50 [39]: 380 nM; LC50 [39]: 3800 nM; TGI ([39]; read-out: Log TGI (converted)): 1350 nM; GI50 [40]: 457 nM; LC50 [40]: 3980 nM; TGI ([40]; read-out: Log TGI (converted)): 1580 nM; GI50 [41]: 776 nM; LC50 [41]: 25700 nM; TGI ([41]; read-out: Log TGI (converted)): 3470 nM; GI50 [42]: 1070 nM; LC50 [42]: 6170 nM; TGI ([42]; read-out: Log TGI (converted)): 2570 nM; GI50 [43]: 891 nM; LC50 [43]: 4570 nM; TGI ([43]; read-out: Log TGI (converted)): 2090 nM; GI50 [44]: 525 nM; LC50 [44]: 4270 nM; TGI ([44]; read-out: Log TGI (converted)): 1740 nM; GI50 [45]: 214 nM; LC50 [45]: 977 nM; TGI ([45]; read-out: Log TGI (converted)): 457 nM
